Test results: ChEMBL document CHEMBL3045068, “Effect of methomyl and oxamyl soil applications on early control of nematodes and insects” (Pest Manag Sci, 2011)
≈ marks a conversion by molar mass, not a printed value.

Key:
Bemisia tabaci = test: Insecticidal activity against second-instar […] stage of Bemisia tabaci (sweet potato whitefly) infested cotton assessed as mortality applied to soil after 6 days; assay type: functional
Meloidogyne incognita [1] = test: Nematicidal activity against second juvenile stage of Meloidogyne incognita (root-knot nematode) infected lima bean plant assessed as shoot dry weight at 2 kg ai/ha applied to soil measured during planting under green house conditions (reference value: 1.84 +/- 0.18 g); assay type: functional
Meloidogyne incognita [2] = test: Nematicidal activity against second juvenile stage of Meloidogyne incognita (root-knot nematode) infected pea plant assessed as root fresh weight at 3 kg ai/ha applied to soil measured up to 14 days post planting under green house conditions (reference value: 1.83 +/- 0.3 g); assay type: functional
Meloidogyne incognita [3] = test: Nematicidal activity against second juvenile stage of Meloidogyne incognita (root-knot nematode) infected pea plant assessed as root fresh weight at 4 kg ai/ha applied to soil measured up to 14 days post planting under green house conditions (reference value: 4.3 +/- 0.56 g); assay type: functional
Meloidogyne incognita [4] = test: Nematicidal activity against second juvenile stage of Meloidogyne incognita (root-knot nematode) infected pea plant assessed as root dry weight at 4 kg ai/ha applied to soil measured up to 7 days post planting under green house conditions (reference value: 0.25 +/- 0.041 g); assay type: functional
Meloidogyne incognita [5] = test: Nematicidal activity against second juvenile stage of Meloidogyne incognita (root-knot nematode) infected pea plant assessed as root dry weight at 2 kg ai/ha applied to soil measured up to 7 days post planting under green house conditions (reference value: 0.25 +/- 0.041 g); assay type: functional
Meloidogyne incognita [6] = test: Nematicidal activity against second juvenile stage of Meloidogyne incognita (root-knot nematode) infected pea plant assessed as reduction in root gall index at 4 kg ai/ha applied to soil measured up to 14 days post planting under green house conditions (reference value: 9.7 +/- 0.30%); assay type: functional
Meloidogyne incognita [7] = test: Nematicidal activity against second juvenile stage of Meloidogyne incognita (root-knot nematode) infected pea plant assessed as reduction in root gall index at 2 kg ai/ha applied to soil measured up to 7 days post planting under green house conditions (reference value: 9.7 +/- 0.30%); assay type: functional
Phaseolus lunatus [8] = test: Phytotoxicity in Phaseolus lunatus (lima bean) plant assessed as plant dry weight at 2.56 kg ai/ha applied to soil measured up to 14 days under green house conditions (reference value: 1.20 +/- 0.21 g); assay type: organism-based; conditions: in vivo, other, 336 h
Phaseolus lunatus [9] = test: Phytotoxicity in Phaseolus lunatus (lima bean) plant assessed as plant dry weight at 1.56 kg ai/ha applied to soil measured up to 7 days under green house conditions (reference value: 1.20 +/- 0.21 g); assay type: organism-based; conditions: in vivo, other, 168 h
Pisum sativum [10] = test: Phytotoxicity in Pisum sativum (pea) assessed as root dry weight at 4 kg ai/ha applied to soil measured up to 7 days post planting at 19 degC (reference value: 2 +/- 0.21 g); assay type: organism-based; conditions: lathyrus oleraceus, in vivo, other, 168 h
Pisum sativum [11] = test: Phytotoxicity in Pisum sativum (pea) assessed as root dry weight at 2 kg ai/ha applied to soil measured up to 7 days post planting at 27 degC under green house conditions (reference value: 0.33 +/- 0.075 g); assay type: organism-based; conditions: lathyrus oleraceus, in vivo, other, 168 h
Pisum sativum [12] = test: Phytotoxicity in Pisum sativum (pea) assessed as plant fresh weight at 4 kg ai/ha applied to soil measured up to 7 days post planting at 19 degC (reference value: 9.4 +/- 0.54 g); assay type: organism-based; conditions: lathyrus oleraceus, in vivo, other, 168 h
Pisum sativum [13] = test: Phytotoxicity in Pisum sativum (pea) assessed as plant fresh weight at 3 kg ai/ha applied to soil measured up to 14 days post planting at 27 degC under green house conditions (reference value: 3.9 +/- 0.83 g); assay type: organism-based; conditions: lathyrus oleraceus, in vivo, other, 336 h
Pisum sativum [14] = test: Phytotoxicity in Pisum sativum (pea) assessed as plant height at 3 kg ai/ha applied to soil measured up to 7 days post planting at 27 degC under green house conditions (reference value: 9.6 +/- 1.5 cm); assay type: organism-based; conditions: lathyrus oleraceus, in vivo, other, 168 h
Pisum sativum [15] = test: Phytotoxicity in Pisum sativum (pea) assessed as emergence at 3 kg ai/ha applied to soil measured up to 7 days post planting at 19 degC relative to untreated control; assay type: organism-based; conditions: lathyrus oleraceus, in vivo, other, 168 h
Pisum sativum [16] = test: Phytotoxicity in Pisum sativum (pea) assessed as emergence at 2 kg ai/ha applied to soil measured up to 7 days post planting at 27 degC under green house conditions (reference value: 70 +/- 3.3%); assay type: organism-based; conditions: lathyrus oleraceus, in vivo, other, 168 h
Meloidogyne incognita [17] = test: Nematicidal activity against second juvenile stage of Meloidogyne incognita (root-knot nematode) infected lima bean plant assessed as root dry weight at 2 kg ai/ha applied to soil measured during planting under green house conditions (reference value: 0.5 +/- 0.052 g); assay type: functional
Meloidogyne incognita [18] = test: Nematicidal activity against second juvenile stage of Meloidogyne incognita (root-knot nematode) infected lima bean plant assessed as reduction in root gall index at 3 kg ai/ha applied to soil measured up to 7 days post planting under green house conditions (reference value: 7 +/- 0.27%); assay type: functional
Meloidogyne incognita [19] = test: Nematicidal activity against second juvenile stage of Meloidogyne incognita (root-knot nematode) infected lima bean plant assessed as reduction in root gall index at 1 kg ai/ha applied to soil measured during planting under green house conditions (reference value: 7 +/- 0.27%); assay type: functional
Meloidogyne incognita [20] = test: Nematicidal activity against second juvenile stage of Meloidogyne incognita (root-knot nematode) infected lima bean plant assessed as emergence at 2 kg ai/ha applied to soil measured during planting under green house conditions (reference value: 83 +/- 5%); assay type: functional

CNC(=O)ON=C(C)SC [METHOMYL]
LC90 (Bemisia tabaci): 1119 mg/L (≈ 6.9 mM)
LC50 (Bemisia tabaci; Bemisia tabaci, soil, 144 h): 673 mg/L (≈ 4.15 mM)
Activity (Meloidogyne incognita [1]): 1.59 g
Activity (Meloidogyne incognita [2]): 0.89 g
Activity (Meloidogyne incognita [3]): 5.5 g
Activity (Meloidogyne incognita [4]): 0.28 g
Activity (Meloidogyne incognita [5]): 0.34 g
Root_galling_index (Meloidogyne incognita [6]): 0%
Root_galling_index (Meloidogyne incognita [7]): 0%
Activity (Phaseolus lunatus [8]): 1.25 g
Activity (Phaseolus lunatus [9]): 1.26 g
Activity (Pisum sativum [10]): 1.7 g
Activity (Pisum sativum [11]): 0.16 g
Activity (Pisum sativum [12]): 8.5 g
Activity (Pisum sativum [13]): 3.3 g
Activity (Pisum sativum [14]): 7 cm
Activity (Pisum sativum [15]): 87%
Activity (Pisum sativum [16]): 50%
Activity (Meloidogyne incognita [17]): 0.36 g
Root_galling_index (Meloidogyne incognita [18]): 0%
Root_galling_index (Meloidogyne incognita [19]): 0%
Activity (Meloidogyne incognita [20]): 100%
